{
  "source": "patent US7041851B2",
  "about": "“Fluorinated phenyl thiophenyl derivatives and their use for imaging serotonin transporters” (The Trustees of the University of Pennsylvania, priority 2002, dated 2006)",
  "origin": "cited, not measured here",
  "target": "T1, SERT (Rattus norvegicus, UniProt P31652)",
  "T1 construct": "from tissue; host or cells: rat brain in vivo (hypothalamus, striatum, hippocampus, cerebellum)",
  "T1 sequence (P31652 whole entry)": "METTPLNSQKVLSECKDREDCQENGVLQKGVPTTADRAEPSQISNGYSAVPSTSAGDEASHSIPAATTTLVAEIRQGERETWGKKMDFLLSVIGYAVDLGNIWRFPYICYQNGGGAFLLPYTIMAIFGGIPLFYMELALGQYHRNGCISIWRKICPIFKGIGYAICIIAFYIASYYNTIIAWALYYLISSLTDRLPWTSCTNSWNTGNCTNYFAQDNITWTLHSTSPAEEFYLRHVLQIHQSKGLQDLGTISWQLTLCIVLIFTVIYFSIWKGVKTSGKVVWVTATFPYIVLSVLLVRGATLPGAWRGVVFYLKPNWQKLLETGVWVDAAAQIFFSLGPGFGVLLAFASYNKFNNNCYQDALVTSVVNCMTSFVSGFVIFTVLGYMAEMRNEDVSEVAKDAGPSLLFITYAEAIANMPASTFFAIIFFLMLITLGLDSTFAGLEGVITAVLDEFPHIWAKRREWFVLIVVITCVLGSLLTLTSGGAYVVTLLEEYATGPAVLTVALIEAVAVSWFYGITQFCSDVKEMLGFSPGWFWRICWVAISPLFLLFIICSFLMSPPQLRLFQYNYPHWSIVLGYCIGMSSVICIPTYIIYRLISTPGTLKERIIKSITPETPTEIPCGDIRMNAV",
  "conditions": "comparison with [18F]ACF, hypothalamus region; cited from earlier work",
  "data": [
    {"molecule": "CN(C)Cc1ccccc1Sc1ccc([125I])cc1N", "note": "[[^125I]ADAM]", "values": [
      {"measurement": "Time of peak uptake", "value": 4, "unit": "h"}
    ]}
  ]
}
